Assays:
[1] = tested on: primary rat cardiomyocyte cells; assay: Cobalt chloride hypoxia-mimic treatment, transcript levels by PCR; format: cell-based; conditions: 150 μM, 4 hours, versus untreated cells
Experimental: Because HIF-1α consensus sites are present in the apelin regulatory region, experiments were conducted to determine whether apelin expression is hypoxia responsive and regulated by HIF-1α. Upregulation of apelin expression under hypoxic conditions would be consistent with a role for apelin in promotion of tumor angiogenesis. Preliminary experiments were carried out using primary rat cardiomyocyte cells in culture and treatment with cobalt chloride. This procedure is accepted as an equivalent to culturing cells under hypoxic conditions because HIF-1α is a metal responsive transcription protein (Ladoux and Frelin, 1994; Piret et al., 2002; Maxwell and Salnikow, 2004). Fetal rat cardiac myocytes were plated and cultured in DMEM (Invitrogen, Carlsbad, Calif.) supplemented with 10% fetal calf serum and penicillin/streptomyocin at 37° C. After four days of culture, medium was removed, and cells were treated with fresh media containing 150 μM Cobalt Chloride (Piret et al., 2002). […] After 4 hours of culture, cells were harvested, and total RNA was extracted using the Trizol procedure according to the manufacturers recommendations (Invitrogen, Carlsbad, Calif.).
Following PCR, amplification products were fractionated on an agarose gel and visualized using ethidium bromide staining under ultraviolet light (FIG. 12).

[2] = tested on: BAE/APJ#2 cells; assay: Endothelial cell proliferation assay (BrdU incorporation); format: cell-based, bovine
Experimental: SU1498 was included in proliferation cultures at a concentration of 10 ng/ml and results were assayed using BrdU incorporation. After growth factor incubation, BrdU was added to each well at a final concentration of 10 μM for 2 hours, cells were washed, and fixed for BrdU immunocytochemistry.
Cells were fixed in 100% ice cold methanol at 4° C. for 2 hours to overnight. Prior to staining, cells were air dried and rehydrated for 3 minutes with PBS buffer. DNA was denatured at 37° C. with 2 M HCl, and neutralized with 2 washes for 5 minutes in 0.1 M borate buffer (pH 8.5). […] FITC-labeled anti-BrdU antibody (5 μg/ml) in block was added for 1 hour at room temperature. Cells were counterstained with propidium iodide following several washes in PBS buffer. For each experiment, 4 random fields were photographed for determination of percentage BrdU labeling.

[3] = tested on: BAE/APJ#2 cells; conditions: 10 ng/ml in bottom chamber, 16 hours
Experimental: Bovine aortic endothelial cells (BAE) were cultured in DMEM supplemented with 10% fetal bovine serum (FBS) and penicillin/streptomycin. For generation of stable cell lines expressing APJ, the mouse APJ coding region was cloned into the pcDNA 3.1 vector downstream of the CMV promoter, in frame with a myc epitope at the C-terminal end of the protein, and upstream of the neomycin gene. […] Colonies were isolated and screened using RT-PCR for expression of mouse APJ and also by immunocytochemistry for expression of the myc epitope.
Cell migration assays were performed using Transwell cell culture migration chambers (Becton Dickinson) with 8 micron pore size. BAE/APJ#2 cells were plated in serum free conditions in 100 μl at a concentration of 1×10^5 ml in the upper chamber of the migration chamber. Following cell attachment to the membrane, 10 ng/ml of growth factor was added to the bottom chamber, in a total volume of 0.5 ml. Cells were stimulated with growth factor in DMEM for 16 hours, or DMEM alone, at which time the cells remaining in the upper chamber were removed using a cotton tip applicator. Following a brief wash with PBS the remaining cells were fixed in 3.7% formaldehyde at 4° C. for 1 hour. Cells attached to the membrane in the lower chamber were stained with DAPI, and 3 random fields were counted for each experimental condition.

[4] = tested on: chicken chorioallantoic membrane (CAM); conditions: 50 ng on filter disc, three days, compared to control PBS
Experimental: Chicken eggs were incubated at 37° C. in a humidified chamber. On day 10 of development, a small window was made in the outer shell of the egg, and the CAM was released from its attachment to the inner shell membrane. A larger window was then made in the egg to allow for addition of the filter paper containing growth factor. Filter discs (3MM Whatman) of 7-8 mm diameter were pretreated with 10 μl of 0.1% cortisone acetate (Sigma) solution to avoid inflammation of the CAM. The filter discs were air dried prior to application of growth factors. […] After air-drying, the filter discs were placed on the CAM, and eggs were returned to the incubator for three days. Filter discs and the attached CAM were then excised, washed with PBS, trimmed to the size of the disc, and photographed for quantitative analysis (FIGS. 7A and 7B). The number of vessel branch points was determined using a blind protocol. The results are shown as the mean of three independent experiments +/−s.e.m. (FIG. 7C).

[Cl][Co][Cl] [Cobalt Chloride]
apelin expression (transcript level, PCR) [1]: significantly increased

CC(C)c1cc(/C=C(\C#N)C(=O)NCCCc2ccccc2)cc(C(C)C)c1O [SU1498, reference compound]
effect on VEGF-mediated proliferation ([2]; SU1498 10 ng/ml, VEGF 10 ng/ml): partially inhibits
effect on apelin-mediated proliferation ([2]; SU1498 10 ng/ml, apelin 10 ng/ml): no significant effect

VEGF [reference compound]
endothelial cell migration (cells per field) [3]: increase in migration

apelin-13
endothelial cell migration (cells per field) [3]: promotes endothelial cell migration
endothelial cell proliferation (percentage BrdU labeling) ([2]; 10 ng/ml, 24 hours, serum starved cells): promotes endothelial cell proliferation to a similar extent as VEGF
endothelial cell proliferation in the presence of the VEGF inhibitor SU1498 ([2]; apelin 10 ng/ml with SU1498 10 ng/ml): still able to promote proliferation
blood vessel formation in the CAM [4]: increased
leakage of blood vessels in the CAM [4]: increased

Reference: patent US7736646B2, “Methods for modulating angiogenesis with apelin compositions” (Arizona Board of Regents on behalf of the University of …, priority 2003, dated 2010)
